In US20130072506A1, “6,8-DISUBSTITUTED PURINE COMPOSITIONS” (priority 2011, published 2013):
pIC50: −log10 of the molar value.

Tests used:
excised wheat leaf tips = assay: Senescence inhibition on winter wheat leaf segments (chlorophyll retention); type: in vivo, Triticum aestivum cv. Hereward; conditions: for Activity (%): at concentration with highest activity, activity of 10^−4 M kinetin set at 100%; for Concentration with highest activity: retention of chlorophyll in excised wheat leaf tips, 96 hours in the dark
Method: Senescence Inhibition by Novel Compounds Tested on Winter Wheat Leaf Segments. Seeds of winter wheat, Triticum aestivum cv. Hereward, were washed under running water for 24 hours and then sown on vermiculite soaked with Knop's solution. They were placed in the grown chamber at 25° C. with a 16/8 hours light period at […]·m^−2·s^−1. After 7 days, the first leaf was fully developed and the second leaf had started to grow. A tip section of the first leaf, approximately 35 mm long, was removed from 5 seedlings and trimmed slightly to a combined weight of 100 mg. The basal ends of the five leaf tips were placed in the wells of a microtiter polystyrene plate containing […] of a cytokinin solution each. The entire plate was inserted into a plastic box lined with paper tissues soaked in distilled water to prevent leaf sections from drying out. After 96 hours incubation in the dark at 25° C., the leaves were removed and chlorophyll extracted by heating at 80° C. for 10 min in 5 ml of 80% ethanol (v/v). The sample volume was then restored to 5 ml by the addition of 80% ethanol (v/v). The absorbance of the extract was recorded at 665 nm. In addition, chlorophyll extracts from fresh leaves and leaf tips incubated in deionized water were measured. The set up of the assay is shown on FIG. 1. From the obtained data, the concentration with highest activity was selected for each compound tested. Relative activity of the compound at this concentration was calculated (see Table 2 below). […] The values shown are means of five replicates and the whole experiment was repeated twice.
The compounds to be tested were dissolved in dimethylsulfoxide (DMSO) and the solution brought up to 10^−3 M with distilled water.

[1] = system: Amaranthus caudatus cotyledon/hypocotyl explants; assay: Amaranthus bioassay (betacyanin content); type: in vivo, Amaranthus caudatus var. atropurpurea; conditions: for Activity (%): at concentration with highest activity, activity of kinetin set at 100%; for Concentration with highest activity: betacyanin content, 48 hours in darkness
Method: Testing of Novel Compounds in Amaranthus bioassay. Standard Amaranthus bioassay was performed with several modifications. The seeds of Amaranthus caudatus var. atropurpurea were surface-sterilized in 10% N-chlorobenzene sulfonamide (w/v) for 10 min and washed 5 times in deionized water. They were placed in 14 cm Petri dishes containing paper tissues saturated with deionized water. After 72 hours of cultivation at 25° C. in darkness, the roots of the seedlings were cut off. The explants, consisting of two cotyledons and hypocotyls, were placed in 5 cm Petri dishes on two layers of filter paper soaked in 1 ml of incubation medium containing 10 μmol Na2HPO4—KH2PO4, pH 6.8, 5 μmol tyrosine and the cytokinin to be tested. There were 20 explants per dish. The procedure was carried out under a green safe light in a darkroom. After a 48 hours of incubation at 25° C. in darkness, betacyanin was extracted by freezing the explants in 4 ml 3.33 μM acetic acid. The concentration of betacyanin was determined by comparing the absorbance at 537 nm and 620 nm as follows: DA=A537nm−A620nm. From the obtained data, the concentration with highest activity was selected for each compound tested. Relative activity of the compound at this concentration was calculated (see Table 3 below). […] The values shown in Table 3 are means of five replicates and the entire test was repeated twice.
The cytokinins to be tested were dissolved in dimethylsulfoxide (DMSO) and the solution brought up to 10^−3 M with distilled water.

[2] = system: cytokinin-dependent tobacco callus; assay: Growth of cytokinin-dependent tobacco callus (plant cell division); type: cell-based, Nicotiana tabacum L. cv. Wisconsin 38; conditions: for Activity (%): at concentration with highest activity, activity of kinetin set at 100%
Method: The effect on plant cell division. Cytokinin-dependent tobacco callus Nicotiana tabacum L. cv. Wisconsin 38 was maintained at 25° C. in darkness on modified MS medium, containing 4 μmol/l nicotinic acid, 2.4 μmol/l pyridoxine hydrochloride, 1.2 μmol/l thiamine, 26.6 μmol/l glycine, 1.37 μmol/l glutamine, 1.8 μmol/1 myo-inositol, 30 g/l of sucrose, 8 g/l of agar, 5.37 μmol/l NAA and 0.5 μmol/l BAP. Subcultivation was carried out every three weeks. Fourteen days before the bioassay, the callus tissue was transferred to the media without BAP. Biological activity was determined from the increase in fresh callus weight after four weeks of cultivation. Five replicates were prepared for each cytokinin concentration and the entire test was repeated twice. From the obtained data, the concentration with highest activity was selected for each compound tested. Relative activity at this concentration was calculated (see Table 4 below).
The cytokinins to be tested were dissolved in dimethylsulfoxide (DMSO) and the solution brought up to 10^−3M with distilled water.

SKH-1 hairless mice [3] = assay: Hairless mouse assay: skin moisture content; type: in vivo; conditions: compared with the vehicle
Excerpt: Evaluation of cutaneous effects of new topical compounds in the hirless mouse assay. The purpose of this study was to evaluate new topical compounds for their safety and efficacy as topical skin anti-aging treatments. The hairless mouse model is a well established model for studying the treatments of photoaging. […] The present study was used to investigate a new class of anti-aging compounds in comparison to classical ones. […] Topical compounds and vehicle controls were be applied daily (Monday-Friday) for 3 weeks to the dorsal skin of hairless mice. At baseline (prior to the 1st treatment), and weekly, the dorsal skin was measured for: transepidermal water loss (TEWL); skin moisture content; and skin elasticity.
(§1) Experimental Design. 48 female SKH-1 hairless mice (5 weeks old, 20-25 grams, Charles River Laboratories, Wilmington, Mass.) are individually housed in filter-top cages, and acclimated for 5-7 days after delivery. The mice are divided into 8 treatment groups (n=6), including two different control groups (untreated control, vehicle control) and a therapeutic control (tretinoin 0.05% Renova™ cream). Cage cards are marked to indicate treatment groups 1-8. Water and mouse chow are provided ad libitum.
Skin Moisture Content & Elasticity. The measurements of skin moisture content and skin elasticity are important noninvasive methods used to characterize the effects of moisturizers and anti-wrinkle effects on skin. A DermaLab™ combination instrument were used to measure the skin moisture content and elasticity of the target skin sites at baseline and at weekly intervals. This instrument is equipped with dual probes which are placed on the skin surface and a quantitative measurement taken of the respective parameters and the measurements recorded on an integrated computer. Mean measurements was determined for each treatment group over time, and comparative statistics used to evaluate product effectiveness.
(§2) Topical Treatments. Beginning on Treatment Day 1, test products are applied topically each morning (Monday through Friday) after erythema evaluations for 3 weeks. Using a positive displacement pipette, 20 mg of each agent is applied to a 2 cm×2 cm area of the center midline of the back. The material was spread across the treatment area with the pipette tip.

SKH-1 hairless mice [4] = assay: Hairless mouse assay: epidermal bromodeoxyuridine (BrdU) staining; type: in vivo; conditions: epidermal BrdU staining after 3 weeks of topical treatment, 0.1% (tretinoin 0.05%)
Excerpt: This study determined the effect of topical compound formulations on epidermal cell proliferation using bromodeoxyuridine as an immunohistochemical marker of cell proliferation. Histological examination of the treated and control skin were used to determine cutaneous effects of the topical compounds. Topical tretinoin 0.05% (Renova™) was used as a therapeutic control.
as §1, §2
Bromodeoxyuridine Injection. All animal groups are injected with bromodeoxyuridine (100 mg/kg) I.P. 4 hours after the final application. Animals are sacrificed by CO2 inhalation 3 hours later followed by cervical dislocation. The test sites are excised, and 6 mm punch biopsies are obtained from each treatment site, and from untreated controls. Biopsies are placed into labeled vials containing 4% neutral buffered formalin for paraffin embedding and anti-BrdU staining.
Bromodeoxyuridine Immunohistochemical Staining. Paraffin sections are cut to a […] thickness and stained using the BrdU Immuno-histochemistry kit (X1545K from Exalpha Biologicals, Inc.) and a standard staining protocol. The slides are weakly counterstained in Mayer's hematoxylin and scored under a light microscope for the number of BrdU-positive cells per mm of epidermis for each section. The data are expressed as mean BrdU-positive cells/mm for each treatment group. Differences in BrdU labeling in the treatment groups are statistically analyzed using the Students t-test. Representative photographs are taken of the histological sections of the BrdU-positive staining cells.

[5] = system: Human diploid fibroblast BJ; assay: In vitro cytotoxic activity (metabolisation of MTT); type: cell-based; conditions: 72 hours, BJ passage 18-22
In short: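 BJ human diploid fibroblasts (passage 18-22) exposed 72 h to compounds at 0-200 μM (top dose lowered if solubility-limited), pentaplicate. MTT 0.5 mg/ml final added for 3 h, formazan dissolved in DMSO, absorbance at 570 nm. GI20 (20% drop in mitochondrial dehydrogenase activity) taken from dose-response curves.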

[6] = system: T-lymphoblastic leukemia cell line CEM; assay: In vitro cytotoxic activity (metabolisation of Calcein AM); type: cell-based, human; conditions: Homo sapiens, CCRF-CEM, CEM cells, 72 hours incubation, called GI50, read-out: Cell line tested/IC50 (μmol/L) CEM
In short: (§3)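 Cells were pre-incubated 24 hours at 2.500-30.000 cells per well, then exposed to six 3-fold dilutions, usually from 100 μM top, for 72 hours at 37° C, 5% CO2, in triplicate. Calcein AM was added at 1 μg/ml final and fluorescence read after 1 hour; GI50 is the concentration halving Calcein AM conversion.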

[7] = system: breast carcinoma cell line MCF-7; assay: as above; type: cell-based, human; conditions: Homo sapiens, MCF7 cells, 72 hours incubation, called GI50, read-out: Cell line tested/IC50 (μmol/L) MCF7
In short: as §3

[8] = system: erytroid leukemia cell line K-562; assay: as above; type: cell-based, human; conditions: Homo sapiens, K562, K-562 cells, 72 hours incubation, called GI50, read-out: Cell line tested/IC50 (μmol/L) K-562
In short: as §3

melanoma cell line G-361 = assay: as above; type: cell-based, human; conditions: Homo sapiens, G-361 cells, 72 hours incubation, called GI50, read-out: Cell line tested/IC50 (μmol/L) G-361
In short: as §3

[9] = system: normal diploid fibroblasts BJ; assay: as above; type: cell-based, human; conditions: Homo sapiens, BJ cells, 72 hours incubation, called GI50, read-out: Cell line tested/IC50 (μmol/L) BJ
In short: as §3

[10] = system: osteosarcoma cell line HOS; assay: as above; type: cell-based, human; conditions: Homo sapiens, HOS cells, 72 hours incubation, called GI50, read-out: Cell line tested/IC50 (μmol/L) HOS
In short: as §3

melting point [°C]	Structure (SMILES)	Activity (%) (excised wheat leaf tips)	Concentration with highest activity (excised wheat leaf tips)	Activity (%) [1] [%]	Concentration with highest activity [1]	Activity (%) [2] [%]	other results
	c1coc(CNc2ncnc3[nH]cnc23)c1 [kinetin, reference compound]	100%	10^−4 mol/l	100	10^−5 mol/l	100	range of the optimal concentration ([2]; tobacco callus growth): sharp concentration optimum
267 to 269	Sc1nc2ncnc(NCc3ccccc3)c2[nH]1 [Compound 138, 6-Benzylamino-8-sulphanylpurine]	140.45 (±3) %	10^−4 mol/l	111.25	10^−4 mol/l	156.66	
217 to 219	CN(C)c1nc2ncnc(NCc3ccccc3)c2[nH]1 [Compound 62, 6-Benzylamino-8-dimethylaminopurine]	106.13 (±1) %	10^−4 mol/l			165.64	
	c1coc(CNc2ncnc3c2ncn3C2CCCCO2)c1 (stereo not drawn) [6-Furfurylamino-9-(2-tetrahydropyranyl)purine]						average moisture content (SKH-1 hairless mice [3]): higher than that of the vehicle; Mean Nuclei Stained (SKH-1 hairless mice [4]): 5.3 ± 4.2
	Clc1nc2ncnc(NCc3ccccc3)c2[nH]1 [Compound 30, 6-Benzylamino-8-chloropurine]	124.81 (±1) %	10^−4 mol/l			157.51	GI20 [5]: >100 µmol/L
	C/C(=C\CNc1ncnc2[nH]cnc12)CO [Zeatin]						average moisture content (SKH-1 hairless mice [3]): higher than that of the vehicle; Mean Nuclei Stained (SKH-1 hairless mice [4]): 3.5 ± 3.4 mm
181 to 185	CCOC(=O)c1nc2ncnc(NCc3ccccc3)c2[nH]1 [Compound 195, 6-Benzylamino-8-ethoxycarbonylpurine]	122.06 (±2) %	10^−4 mol/l	122.55	10^−4 mol/l		
	Brc1nc2ncnc(NCc3ccccc3)c2[nH]1 [Compound 2, 6-Benzylamino-8-bromopurine]	144.76 (±6) %	10^−4 mol/l			174.83	pIC50 [6]: < 4.30; pIC50 [7]: < 4.30; pIC50 [8]: < 4.30; pIC50 (melanoma cell line G-361): < 4.30; pIC50 [9]: < 4.30; pIC50 [10]: < 4.30; GI20 [5]: >50 µmol/L
